The values that follow are results of earlier work, collected in US10105415B2, “Compositions comprising granulocyte-macrophage colony-stimulating factor for the treatment of inflammatory bowel disease” (priority 2014, dated 2018).

As a reminder, the bioavailability is the share of a dose that reaches the circulation, judged against a reference dose that is usually intravenous.

For data set [1] the following is noted: given orally.
Experiment in data set [2]: not given
The source holds these as a separate data set.

For data set [3] the following is noted: oral / local.
The conditions of data set [4]: adverse effect frequency.
Another data set relates to Pseudomonas aeruginosa. Conditions: controlled clinical trials.
Data set [5] has as its system strains of organisms from the susceptible genera.
Data set [6] has as its system resistant bacterial strains. As to conditions: controlled clinical trials, oral or intravenous.
The test system of data set [7] is polymorphonuclear leukocytes.
A further data set deals with Crohn's disease. As to conditions: systemic (intravenous or subcutaneous), CD patients.
The conditions of data set [8]: given subcutaneously or infused intravenously for systemic effect.

Turning to `C[C@@H]1O[C@@H]1P(=O)(O)O` [Fosfomycin calcium monohydrate], the bioavailability in data set [1] is listed as no less than 12%. Also, under “0.4% solution”, the “pH of 0.4% solution” value is 8.1-9.6. The solubility in water entry in data set [2] is reported as “sparingly soluble in water”. Further, the tolerability / irritation entry in data set [3] is reported as “less irritating to the stomach”.

On to `C[C@@H]1O[C@@H]1P(=O)(O)O` [Fosfomycin disodium], for which the “pH of 5% solution” value was 9.0-10.5. In addition, in data set [1], the bioavailability result is on record as “high bioavailability”. In data set [2], the solubility in water entry is reported as “highly soluble in water”. In addition, the tolerability / irritation entry in [3] was “locally irritant if un-neutralized”.

Turning to `C[C@@H]1O[C@@H]1P(=O)(O)O.NC(CO)(CO)CO` [Fosfomycin trometamol], the “pH of 5% solution” value is listed as 3.5-5.5. Also, the bioavailability result in [1] is “about 40%”. In addition, in data set [2], the solubility in water entry was “highly soluble in water”. Further, the tolerability / irritation result in data set [3] was “well tolerated”.

On to `C[C@@H]1O[C@@H]1P(=O)(O)O` [Fosfomycin, [(2R,3S)-3-methyloxiran-2-yl]phosphonic acid], for which, in data set [4], the eosinophilia is 0.2%, the “transient rashes (evidence of allergy)” value is listed as 0.3 % of cases and the “transiently raised liver enzymes” value is given as 0.3 % of cases. For the same compound, the “appearance of resistant bacterial strains, maximum” value in the data set on Pseudomonas aeruginosa was no more than 15%. Further, the “synergistic effect, share of tested strains” value in [5] (early studies, various antibiotic combinations) is recorded as 70-100%. Moreover, the synergy rates in data set [5] (subsequent more extensive studies) is 36-74%. Further, in data set [6], the “appearance of resistant bacterial strains, overall” value is recorded as 3.0%. The “concentration in polymorphonuclear leukocytes relative to extracellular fluid” value in [7] was “twice”.

For “GM-CSF: Monomeric glycoprotein of 127 amino-acid residues (SEQ ID NO: 2), colony-stimulating factor; recombinant forms regramostim, sargramostim, molgramostim”, in the data set on Crohn's disease, the primary therapeutic endpoints result is on record as “failed to achieve their primary therapeutic endpoints”. Also, the plasma concentrations achieved in [8] is recorded as greater than 1 ng/mL.
